Measurements: US12643907B2 (priority 2020, dated 2026)
Entries after “also recorded” stand apart in the source; their conditions may differ.

Columns and labels:
mice = assay: Mouse 55° C. tail-withdrawal assay, antinociception of the compound itself (opioid agonist effects); type: in vivo; conditions: s.c.
MOR = target: T1, MOR (Mus musculus, UniProt P42866); assay: Mouse 55° C. warm-water tail withdrawal (WWTW) assay, antagonism of the MOR agonist morphine; type: in vivo; conditions: for antagonism of morphine-induced antinociception at 24 h: 24 h after a 30 mg/kg s.c. treatment
T1 construct: from tissue; host or cells: living mice (in vivo)

[1] = naloxone; cited from earlier work

T1 sequence (P42866 whole entry): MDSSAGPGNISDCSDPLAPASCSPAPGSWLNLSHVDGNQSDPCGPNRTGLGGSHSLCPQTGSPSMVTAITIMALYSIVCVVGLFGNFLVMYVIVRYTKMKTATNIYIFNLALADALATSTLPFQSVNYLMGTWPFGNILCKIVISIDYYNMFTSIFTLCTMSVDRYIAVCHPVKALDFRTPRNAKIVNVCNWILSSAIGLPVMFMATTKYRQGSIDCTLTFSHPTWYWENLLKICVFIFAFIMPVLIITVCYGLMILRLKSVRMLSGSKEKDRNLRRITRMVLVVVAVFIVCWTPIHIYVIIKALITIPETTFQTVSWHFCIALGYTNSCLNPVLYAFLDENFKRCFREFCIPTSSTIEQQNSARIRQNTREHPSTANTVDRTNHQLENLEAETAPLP

In the case of `C=CCN1CCC23c4c5ccc(O)c4OC2C(N(C)CCS(=O)(=O)F)CCC3(O)C1C5` (racemic) [TJ-345], the “weak transient antinociception of compound alone” value (mice; >30 nmol i.c.v. or 60 mg/kg, first 40 min after treatment) is reported as roughly 15%, the “antagonism of morphine-induced antinociception at 24 h” value (MOR; 30 mg/kg) is reported as “only partial blockade; also recorded: only partially antagonized” and the “duration of blockade of opiate analgesia” value (MOR; doses as low as 3 nmol (i.c.v) or 30 mg/kg (s.c.)) is reported as 24 to 48 h. For the same compound, the “doses that antagonized morphine antinociception” value (MOR; i.c.v. pretreatment, not 0.3 nmol) was 3 to 300 nmol and the “doses that antagonized morphine antinociception” value (MOR; s.c. pretreatment, not 1 mg/kg) was 3 to 60 mg/kg.

In the case of `C=CCN1CC[C@]23c4c5ccc(O)c4O[C@H]2C(=O)CC[C@@]3(O)[C@H]1C5` [naloxone], the half-life [1] is listed as 2 h.

For `C=CCN1CC[C@]23c4c5ccc(O)c4O[C@H]2[C@H](N(C)CCS(=O)(=O)F)CC[C@@]3(O)C1C5` [TJ-171], the “antinociception of compound alone (opioid agonist effects)” value (mice; doses up to 30 mg/kg) was “did not display antinociception; also recorded: no antinociception”, the “duration of MOR antagonism” value (MOR; 30 mg/kg, s.c.) was “at least 24 hours” and the “antagonism of morphine-induced antinociception at 24 h” value (MOR) was “fully antagonized”.
